Experiments:
Human betaherpesvirus 5 [1] = assay: Antiviral activity against Human cytomegalovirus (AD169) strain(HCMV); format: functional, organism-based
Human betaherpesvirus 5 [2] = assay: Cytotoxicity against Human cytomegalovirus (AD169) strain(HCMV); format: functional
Human betaherpesvirus 5 [3] = assay: Antiviral activity against clinical isolates of human origin CMV-strain B; format: functional, organism-based
Human betaherpesvirus 5 [4] = assay: Antiviral activity against clinical isolates of human origin CMV-strainC; format: functional, organism-based
Human betaherpesvirus 5 [5] = assay: Antiviral activity against clinical isolates of human origin CMV-strainA; format: functional, organism-based

| Compound | IC50 (Human betaherpesvirus 5 [1]) [µM] | CC50 (Human betaherpesvirus 5 [2]) [µM] | IC50 (Human betaherpesvirus 5 [3]) [µM] | IC50 (Human betaherpesvirus 5 [4]) [µM] | IC50 (Human betaherpesvirus 5 [5]) [µM] |
| --- | --- | --- | --- | --- | --- |
| O=S1(=O)N=C(OCc2ccccc2)c2ccccc2N1Cc1ccccc1 | 7.9 | > 66 | – | – | – |
| O=C1c2ccccc2N(Cc2cccc(Cl)c2)S(=O)(=O)N1Cc1ccccc1 | 3.6 | > 60 | – | – | – |
| O=C1c2ccccc2N(Cc2ccc(Cl)cc2)S(=O)(=O)N1COCc1ccccc1 | 6.7 | > 56 | – | – | – |
| O=C1c2ccccc2N(Cc2ccccc2Cl)S(=O)(=O)N1Cc1ccccc1 | 4.8 | > 60 | – | – | – |
| O=C1c2ccccc2N(COCc2ccccc2)S(=O)(=O)N1COCc1ccccc1 | 34 | > 57 | – | – | – |
| O=C1c2ccccc2N(Cc2ccccc2Cl)S(=O)(=O)N1COCc1ccccc1 | 18 | > 56 | – | – | – |
| O=C1c2ccccc2N(Cc2ccc(Cl)cc2)S(=O)(=O)N1Cc1ccc(Cl)cc1 | 3.6 | > 60 | – | – | – |
| O=C1c2ccccc2N(Cc2ccccc2)S(=O)(=O)N1Cc1ccccc1 | 5.2 | > 66 | – | – | – |
| O=C1c2ccccc2N(Cc2ccccc2)S(=O)(=O)N1Cc1ccc(Cl)cc1 | 6 | > 60 | – | – | – |
| O=C1c2ccccc2N(Cc2ccc(Cl)cc2)S(=O)(=O)N1Cc1ccccc1 | 3.6 | > 60 | 1.2 | 2.4 | 2.4 |
| O=C1c2ccccc2N(Cc2ccccc2Cl)S(=O)(=O)N1Cc1ccccc1Cl | 3.6 | > 60 | – | – | – |
| O=C1c2ccccc2N(Cc2ccccc2)S(=O)(=O)N1Cc1ccccc1Cl | 12.1 | > 60 | – | – | – |
| Nc1nc2c(ncn2COC(CO)CO)c(=O)[nH]1 [GANCICLOVIR] | 5.9 | > 98 | 3.9 | 3.9 | 5.9 |
